{
  "source": "patent US8309768B2",
  "about": "“FTY720-derived anticancer agents” (The Ohio State University Research Foundation, priority 2010, dated 2012)",
  "key": {"[1]": {"target": "T1, S1P1 receptor-overexpressing Huh7 cells (Homo sapiens, UniProt P21453)", "T1 construct": "expressed in transfected cells", "T1 sequence (P21453 whole entry)": "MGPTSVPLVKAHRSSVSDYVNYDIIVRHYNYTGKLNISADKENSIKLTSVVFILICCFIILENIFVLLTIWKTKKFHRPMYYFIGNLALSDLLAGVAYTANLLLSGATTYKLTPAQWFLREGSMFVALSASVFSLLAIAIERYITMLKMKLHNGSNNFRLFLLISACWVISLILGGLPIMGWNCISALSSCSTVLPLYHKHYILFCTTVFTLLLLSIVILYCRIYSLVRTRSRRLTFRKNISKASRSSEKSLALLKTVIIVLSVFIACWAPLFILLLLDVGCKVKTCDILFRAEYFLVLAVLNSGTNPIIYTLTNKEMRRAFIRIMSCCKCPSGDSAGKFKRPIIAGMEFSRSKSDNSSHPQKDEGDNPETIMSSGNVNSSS", "assay": "Immunocytochemical analysis of S1P1 receptor internalization", "type": "cell-based", "conditions": "immunocytochemistry", "quoted_text": "Immunocytochemistry. Immunocytochemical analysis of S1P1 internalization and PKCδ nuclear translocation were performed as described. […] Briefly, treated cells were washed, fixed with 4% paraformaldehyde, and permeabilized with 0.1% Triton X-100. After blocking with 2% FBS, cells were incubated with rabbit anti-S1P1 or rabbit anti-PKCδ antibodies (1:200 dilution, 4° C., 24 h), followed by Alexa Fluor 488-conjugated goat anti-rabbit IgG (room temperature, 1 h). Nuclei were counterstained with a 4,6-diamidino-2-phenylindole (DAPI)-containing mounting medium (Vector Laboratories, Burlingame, Calif.)."}, "[2]": {"tested_on": "Huh7 cells", "assay": "MTT cell viability assay, Huh7", "type": "cell-based", "conditions": "Homo sapiens, Huh-7, 24 h of treatment, MTT", "protocol": "(§1) Cell lines, culture and reagents. The HCC cell lines Hep3B, PLC5 and Huh7, as well as primary nonmalignant human hepatocytes were used in this study. Cancer cells were cultured in Dulbecco's Modified Eagle's medium (DMEM) supplemented with 10% fetal bovine serum (FBS). Hepatocytes were maintained in defined Hepatocyte Culture Medium. […] Various polyclonal and monoclonal antibodies were used for western blotting, immunocytochemical, and flow cytometric analyses.\n(§2) Cell viability assay. Cell viability was assessed by 3-(4,5-dimethylthiazol-2-yl)-2,5-diphenyl-2H-tetrazolium bromide (MTT) assays in six replicates. Cells were seeded (4,000 cells/well; 96-well plate) for 24 h and treated with test agents in 5% FBS-supplemented DMEM. After treatment, cells were incubated in medium containing 0.5 mg/ml MTT (37° C., 2 h). Reduced MTT was dissolved in DMSO (200 μL/well) and absorbances measured at 570 nm."}, "[3]": {"tested_on": "Hep3B cells", "assay": "MTT cell viability assay, Hep3B", "type": "cell-based", "conditions": "Homo sapiens, 24 h of treatment", "protocol": "as §1, §2"}, "[4]": {"tested_on": "PLC5 cells", "assay": "MTT cell viability assay, PLC5", "type": "cell-based", "conditions": "24 h of treatment", "protocol": "as §1, §2"}, "[5]": {"tested_on": "normal human hepatocytes", "assay": "MTT cell viability assay, normal hepatocytes", "type": "cell-based", "conditions": "24 h", "protocol": "as §1, §2"}, "[6]": {"target": "T1, S1P1 receptor-overexpressing Huh7 cells", "assay": "Cell viability in stable S1P1 receptor transfectants", "type": "cell-based", "conditions": "two stable S1P1 clones vs wild-type Huh7", "protocol": "as §2\nOverexpression of S1P1 Receptors. Huh7 or Hep3B cells were transfected with plasmids encoding S1PR1, Flag-tagged GST-π or hemagglutinin (HA)-tagged, CA-Akt. The corresponding empty vectors were used as controls. Stable clones were selected over 3 weeks by geneticin, and the expression of cloned proteins was confirmed by Western blotting."}, "[7]": {"tested_on": "Hep3B, Huh7, and PLC5 cells", "assay": "ROS production by flow cytometry with DCFDA", "type": "cell-based", "conditions": "1 h of treatment", "protocol": "Flow cytometry. For assessment of apoptosis, treated cells were stained with Annexin V-Alexa Fluor 488 and propidium iodide according to the vendor's protocols (Molecular Probes). For caspase-3 activity, cells were incubated with the fluorogenic caspase-3 substrate (Ac-DMQD)-2-Rh110 for 20 min. ROS production was detected using the fluorescence probe 5-(and-6)-carboxy-2′,7′-dichlorodihydrofluorescein diacetate (DCFDA) as described. Hung et al., Cancer Res., 68, 1204-1212 (2008). Data were analyzed by ModFitLT V3.0 software program."}, "[8]": {"tested_on": "subcutaneous Hep3B tumors", "assay": "Ectopic (subcutaneous) Hep3B xenograft tumor model", "type": "in vivo, athymic nude mice", "protocol": "(§3) Xenograft tumor models. Ectopic tumors were established in athymic nude mice by subcutaneous injection of 1×10^6 Hep3B cells in a total volume of 0.1 ml of serum-free medium containing 50% Matrigel. Mice with established tumors were randomized to five groups (n=8) that received daily i.p. injections of OSU-2S or FTY720 at 5 or 10 mg/kg, or the vehicle. Tumor burdens were determined weekly using calipers (volume=width^2×length×0.52). Body weights were measured weekly. At the study endpoint, tumors were harvested, snap-frozen and stored at −80° C. for biomarker analysis. Blood and tissues were collected for evaluation of complete blood counts, serum chemistry and histopathology."}, "[9]": {"tested_on": "orthotopic Hep3B-luc tumors", "assay": "Orthotopic Hep3B-luc xenograft tumor model", "type": "in vivo, athymic nude mice", "set-up": "dose or concentration left out as unconfirmed", "conditions": "end of treatment (42 days)", "from_the_text": "Orthotopic tumors were established by direct intrahepatic injection of luciferase-expressing Hep3B (Hep3B-luc) cells as described. Omar et al., Mol Pharmacol, 76, 957-968 (2009). The establishment and growth of tumors were monitored by bioluminescent imaging using the IVIS™ imaging system (Xenogen, Alameda, Calif.). […] All animal use described in this manuscript was done in accordance with protocols approved by The Ohio State University Institutional Animal Care and Use Committee."}, "[10]": {"assay": "Toxicity evaluation in tumor-bearing mice (body weight, blood counts, histopathology)", "type": "in vivo, athymic nude mice", "conditions": "for mice with abdominal adhesions with varying amounts of peritonitis: of six mice per group examined histologically", "protocol": "as §3\nOrthotopic tumors were established by direct intrahepatic injection of luciferase-expressing Hep3B (Hep3B-luc) cells as described. Omar et al., Mol Pharmacol, 76, 957-968 (2009). The establishment and growth of tumors were monitored by bioluminescent imaging using the IVIS™ imaging system (Xenogen, Alameda, Calif.). Two weeks after tumor cell injection, animals with established tumors were randomized to three groups (n=3) that received daily i.p. injections of FTY720 or OSU-2S at 5 mg/kg, or vehicle for 42 days and were imaged weekly. All animal use described in this manuscript was done in accordance with protocols approved by The Ohio State University Institutional Animal Care and Use Committee."}, "[11]": {"tested_on": "CLL cells", "assay": "ROS induction in CLL cells (dihydroethidium staining)", "type": "cell-based", "conditions": "8 μM, untreated about 40%", "protocol": "The induction of Reactive Oxygen Species (ROS) in CLL cells by OSU-2S was detected by staining OSU-2S 8 μM treated CLL cells with dihyroethidium. The ROS in the cells oxidizes DHE to ethidium staining the nucleus with a bright red fluorescence detected by flow cytometer. A hydrogen peroxide solution was used as a control."}},
  "data": [
    {"smiles": "CCC[C@@](N)(CO)CCc1ccc(OCCCCCC(C)C)cc1", "note": "[OSU-2S, (S)-2-amino-2-(4-[(6-methylheptyl)-oxy]phenethyl)pentan-1-ol]", "values": [
      {"measurement": "S1P1 receptor internalization and clustering in the cytoplasm", "setting": "[1]", "value": "failed to show any appreciable effect"},
      {"measurement": "IC50", "setting": "[2]", "value": 2400, "unit": "nM"},
      {"measurement": "IC50", "setting": "[3]", "value": 2400, "unit": "nM"},
      {"measurement": "IC50", "setting": "[4]", "value": 3500, "unit": "nM"},
      {"measurement": "sensitivity of normal human hepatocytes relative to malignant cells", "setting": "[5]", "value": "resistant"},
      {"measurement": "effect of S1P1 receptor overexpression on antiproliferative activity", "setting": "[6]", "value": "no protective effect"},
      {"measurement": "ROS production", "setting": "[7]", "value": "to a greater extent than FTY720"},
      {"measurement": "ectopic Hep3B tumor growth vs vehicle control", "setting": "[8]; 5 mg/kg, i.p. once daily, P<0.001", "value": "completely suppressed"},
      {"measurement": "reduction of tumor volume", "setting": "[8]; 10 mg/kg i.p. daily, end of 42-day treatment", "value": "more than 50%"},
      {"measurement": "intratumoral biomarkers of drug activity", "setting": "[8]; Hep3B tumor tissue homogenates, Western blot", "value": "PKCδ and caspase-3 were activated"},
      {"measurement": "reduction in bioluminescent intensity", "setting": "[9]", "value": 80, "unit": "%"},
      {"measurement": "mice with abdominal adhesions with varying amounts of peritonitis", "setting": "[10]; 5 mg/kg", "value": "all"},
      {"measurement": "mice with abdominal adhesions with varying amounts of peritonitis", "setting": "[10]; 10 mg/kg", "value": "all"},
      {"measurement": "lymphocyte levels", "setting": "[10]; ectopic tumor-bearing mice at study endpoint", "value": "normal"},
      {"measurement": "overt toxicity and body weight", "setting": "[10]; ectopic tumor-bearing mice, daily i.p. 5 or 10 mg/kg", "value": "no overt signs of toxicity and no loss of body weight"},
      {"measurement": "total lymphocyte counts", "setting": "[10]; mice after 42 days of treatment", "value": "no decrease"},
      {"measurement": "tolerability (stable body weights)", "setting": "[10]; orthotopic tumor-bearing mice, daily i.p., 42 days", "value": "well tolerated"},
      {"measurement": "DHE positive cell %", "setting": "[11]", "value": "about 70%"}
    ]}
  ]
}
